From PubChem BioAssay AID1996 come the findings set out here.

What is called solubility (kinetic) is the concentration staying in solution when a stock, usually in DMSO, is diluted into the medium.

Values after ≈ are worked out from the molar mass of the structure shown.

The conditions of this series: buffer; pH 7.4; 200.0 µM.
The molecule `Cl.O=S(=O)(NCCN1CCN(S(=O)(=O)c2ccccc2F)CC1)c1ccccc1F` had a kinetic solubility above 0.0723 mg/mL.
Regarding `COc1cccc(CC(=O)OCC(=O)NC2CCCCCC2)c1`, the kinetic solubility was above 0.0479 mg/mL.
On to `Cc1ccc(C)c(S(=O)(=O)NCc2ccc3c(c2)OCO3)c1`, for which the kinetic solubility was determined as 0.0477 mg/mL (≈ 149 µM).
The value for `CSc1ncc(C(=O)Nc2ccc(Cl)cc2)c(C)n1` was 0.0127 mg/mL (≈ 43.2 µM).
For `CCc1ccc(N2C(=O)C3C(C2=O)N2CCCN2C3c2ccccc2)cc1` (stereo not drawn) the value was above 0.0542 mg/mL.
The value for `CCCN(CCC)C(=O)Nc1cc(Cl)ccc1OC` was 0.0319 mg/mL (≈ 112 µM).
`COC(/C(=N/O)c1ccc(Cl)cc1)c1ccccc1` (stereo not drawn) showed a kinetic solubility of 0.0358 mg/mL (≈ 130 µM).
For `O=C(CCc1ccccc1)NCc1ccc(F)cc1` the value was 0.0341 mg/mL (≈ 133 µM); for `O=C(/C=C/c1ccccc1[N+](=O)[O-])NCc1ccccc1Cl`, 0.0015 mg/mL (≈ 4.74 µM); for `O=C(c1ccc(S(=O)(=O)NCc2ccco2)cc1)N1CCN(c2ccccc2)CC1`, 0.0091 mg/mL (≈ 21.4 µM).
With `CN1CCC(OC(c2ccccc2)c2ccccc2)CC1.Cl`, the kinetic solubility was above 0.0477 mg/mL.
With `CC(C)=C(NC(=O)c1ccccc1)C(=O)Nc1cccc(C)c1`, the solubility (kinetic) came to 0.0028 mg/mL (≈ 9.08 µM).
For `CCc1ccccc1NC(=O)CN(C)C(=O)COC(=O)c1ccco1` the value was above 0.0517 mg/mL; for `COc1cc2ccccc2cc1C(=O)Nc1ccccc1Cl`, below 0.0007 mg/mL.
For `CC(=O)Cc1cc2cc([N+](=O)[O-])ccc2oc1=O` the value was above 0.0371 mg/mL.
`O=C(CCC(=O)NC1CCCCC1)NCc1ccc(F)cc1` yielded a solubility (kinetic) above 0.046 mg/mL.
The value for `O=C(COc1ccc(F)c(Cl)c1)Nc1ccc(N2CCOCC2)cc1` was 0.0054 mg/mL (≈ 14.8 µM); that for `COc1cc(NC(=O)CC(C)n2ccnc2)cc(OC)c1` (stereo not drawn) was above 0.0434 mg/mL.
The value for `CCCOc1ccc(NC(=O)CC2Nc3ccccc3NC2=O)cc1` (stereo not drawn) was 0.0027 mg/mL (≈ 7.96 µM); that for `CC(C)[C@H](NC(=O)c1ccccc1F)C(=O)Nc1ccc(F)c(F)c1` was 0.0049 mg/mL (≈ 14 µM).
Consider `CCC1(c2ccc(-c3ccccc3)cc2)C(=O)NC(=O)NC1=O`, for which the solubility (kinetic) was 0.0046 mg/mL (≈ 14.9 µM). This solubility kinetic and that of the molecule before are within 1.5-fold of each other.
The value for `CC1(CO)COC(c2ccccc2)=N1` (stereo not drawn) was above 0.0287 mg/mL; that for `CC(C)C1Cc2ccccc2-c2[nH]c(=S)[nH]c(=O)c21` (stereo not drawn) was 0.027 mg/mL (≈ 99.1 µM).
On to `CC(=O)c1ccc(S(=O)(=O)NC2CCCCCCC2)cc1`, for which the solubility (kinetic) was determined as 0.0451 mg/mL (≈ 146 µM).
The value for `COc1ccc(CCNC(=O)c2csc3c2CCCC3)cc1` was 0.0021 mg/mL (≈ 6.66 µM); that for `COc1ccc(OC)c(C(C)NC(=O)C23CC4CC(CC(C4)C2)C3)c1` (stereo not drawn) was 0.0008 mg/mL (≈ 2.33 µM); that for `O=C(CN1C(=O)c2ccccc2C1=O)OCC(=O)N1CCCCC1` was above 0.0496 mg/mL.
For `O=C(Nc1ccccc1)NC1CCN(Cc2c(F)cccc2Cl)CC1` the value was 0.0068 mg/mL (≈ 18.8 µM).
Consider `COc1cccc(CC(=O)OCC(=O)NC2CCCC2)c1`, for which the solubility (kinetic) is above 0.0437 mg/mL.
The value for `COc1ccc(N=Cc2c(OC)ccc3ccccc23)cc1` was 0.0339 mg/mL (≈ 116 µM); that for `CC(C)CCNC(=O)C(=O)Nc1cc2c3c(c1)CC(=O)N3CCC2` was 0.0285 mg/mL (≈ 86.5 µM).
For `CC(C)[C@H](NS(=O)(=O)c1ccccc1F)C(=O)NC1CCCCC1`, the kinetic solubility was above 0.0535 mg/mL.
In turn, `CCNC(=O)c1c(O)c2c([nH]c1=O)CCCC2` displayed a kinetic solubility of 0.003 mg/mL (≈ 12.7 µM).
`COc1ccc(NC(=O)NCc2ccccc2F)cc1OC`: the solubility (kinetic) amounted to 0.0109 mg/mL (≈ 35.8 µM).
Consider `Cc1ccccc1OCCC(=O)Nc1ccccc1C(=O)N1CCCCC1`, for which the kinetic solubility is 0.0527 mg/mL (≈ 144 µM).
`COc1ccccc1CC(=O)N1CCN(CCc2ccccc2)CC1`: the solubility (kinetic) is above 0.0508 mg/mL.
Take `CN(C)/C=C/C(=O)c1ccc(Oc2ncccn2)cc1`: the solubility (kinetic) is above 0.0404 mg/mL.
For `CC1CN(C(=O)COC(=O)c2ccc(N(C)C)cc2)CC(C)O1` (stereo not drawn) the value was above 0.0481 mg/mL; for `CC(C)(C)C(=O)/C=c1\[nH]c(=O)/c(=C\c2ccccc2F)s1`, below 0.0007 mg/mL.
For `CCOC(=O)CNC(=O)CSc1nc(-c2ccc(C)cc2)ns1` the value was 0.0111 mg/mL (≈ 31.6 µM); for `Cc1cc(OC(=O)c2ccc(C)c(C)c2)c([N+](=O)[O-])c(=O)[nH]1`, above 0.0453 mg/mL; for `CC1CC(C)CN(C(=O)COC(=O)Cc2ccc(Cl)cc2)C1` (stereo not drawn), 0.0413 mg/mL (≈ 128 µM).
The value for `Cc1cc(C)cc(NC(=O)COC(=O)c2ccc3c(c2)OCCO3)c1` was 0.0023 mg/mL (≈ 6.74 µM); that for `O=S1(=O)CCN(CCc2c[nH]c3ccccc23)CC1` was 0.0382 mg/mL (≈ 137 µM).
`COc1c(Cl)ccc(Cl)c1C(=O)NCc1ccco1` had a kinetic solubility above 0.045 mg/mL.
Take `O=C(NC(=S)Nc1ccccc1F)C1CCCCC1`: the kinetic solubility worked out at 0.003 mg/mL (≈ 10.7 µM).
For `COCCN1CCn2c(nc3cc(NS(C)(=O)=O)ccc32)C1` the value was above 0.0487 mg/mL; for `CC(C)(C)NC(=O)NC(=O)CN1CCN(c2ccccc2O)CC1`, 0.0448 mg/mL (≈ 134 µM); for `CC(NS(=O)(=O)c1cc(C(F)(F)F)ccc1Cl)C(=O)N(C)C1CCN(C)CC1` (stereo not drawn), above 0.0663 mg/mL.
For `S=C(NCc1ccccc1)Nc1ccncc1` the value was 0.03 mg/mL (≈ 123 µM).
Molecule `O=C(O)COCC(=O)Nc1ccc2c(c1)oc1ccccc12` yielded a solubility (kinetic) above 0.0449 mg/mL.
`CN1C(=O)OC(C)(C)C1=O` showed a kinetic solubility below 0.0003 mg/mL.
Molecule `O=Cc1cn(Cc2c(F)cccc2Cl)c2ccccc12` had a kinetic solubility of 0.0056 mg/mL (≈ 19.5 µM).
The value for `CC(=O)N1CCN(c2ccc([N+](=O)[O-])c(NCc3cccnc3)c2)CC1` was above 0.0533 mg/mL; that for `Cc1ccc(CSCC(=O)Nc2ccccc2)cc1` was 0.0334 mg/mL (≈ 123 µM); that for `CC1CCCN(Cc2c(O)ccc3c4c(c(=O)oc23)CCCC4)C1` (stereo not drawn) was 0.044 mg/mL (≈ 134 µM).
Consider `CCCN1CN(c2ccccc2)C(=S)N(c2ccccc2)C1`, for which the solubility (kinetic) is above 0.0467 mg/mL.
For `CCN1CCN(C(=S)NC(=O)c2cccc(Br)c2)CC1` the value was above 0.0534 mg/mL; for `Cc1ccc(NC(=O)C(Cc2ccccc2)n2cccc2)cc1` (stereo not drawn), 0.0019 mg/mL (≈ 6.24 µM); for `Cc1ccc(C(=O)NCC(=O)Nc2ccc(S(=O)(=O)Nc3cc(C)nc(C)n3)cc2)cc1`, above 0.068 mg/mL.
For `O=C(CN1CCc2ccccc2C1)NCC(=O)Nc1ccc(F)cc1` the value was 0.0171 mg/mL (≈ 50.1 µM); for `CCOc1ccccc1NC(=O)CCNC(=O)c1ccco1`, 0.0426 mg/mL (≈ 141 µM); for `Cc1ccc(S(=O)(=O)N2CCOCC2)cc1C(=O)N1CC(C)CC(C)C1` (stereo not drawn), 0.0359 mg/mL (≈ 94.3 µM).
In turn, `N/C(=N\c1nc2ccccc2o1)NC(=O)c1ccc([N+](=O)[O-])cc1` displayed a kinetic solubility below 0.0001 mg/mL.
`CCOC(=O)C(=CNc1ccc(N2CCOCC2)cc1)C(=O)OCC` yielded a solubility (kinetic) above 0.0523 mg/mL.
The value for `CC(C)CCN(C(=S)Nc1cccc(F)c1)C1CCN(C(C)C)CC1` was 0.0482 mg/mL (≈ 132 µM); that for `COc1ccc(NC(=O)CN2CCN(Cc3ccccc3)CC2)cc1` was above 0.0509 mg/mL; that for `Nc1cc(=O)[nH]c(SCC(=O)Nc2ccccc2-c2ccccc2)n1` was above 0.0529 mg/mL.
The molecule `CCN(C(=O)CSc1nnc(C)c(=O)[nH]1)c1cccc2ccccc12` displayed a solubility (kinetic) above 0.0532 mg/mL.
`O=C(/C=C/c1cccnc1)c1ccc(O)cc1` showed a solubility (kinetic) of 0.0285 mg/mL (≈ 127 µM).
The value for `Oc1c(Cl)cc(Cl)cc1CNc1nccs1` was 0.0029 mg/mL (≈ 10.5 µM).
For `Cc1c(C)n(CCCN(C)C)c2ncnc(NCc3ccccc3)c12` the value was above 0.0506 mg/mL; for `O=C(NC1CCSc2ccccc21)c1cccc(OC(F)F)c1` (stereo not drawn), 0.0045 mg/mL (≈ 13.4 µM).
